PubChem BioAssay AID248 (DTP/NCI, 2004)
“And” between values parts separate entries of the source, which are not always exact repeats. Identical values can stand only once. Toxic doses and inconclusive results are not listed. Cut-off read from the data, not from the text of the source: active = T/C of 150% or more; inactive = T/C below 125%.

Tested on: L1210 leukemia ip in BDF1 mice, survival T/C
Test: NCI In Vivo Anticancer Drug Screen. Data for tumor model L1210 Leukemia (intraperitoneal) in B6D2F1 (BDF1) mice
Conditions: endpoint: mean survival time, higher = longer survival
How it was run: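 Ratio derived from survival: compound-dosed mice over vehicle-dosed mice, all bearing a transplantable tumor.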

[1] = dose: 100.0 mg/kg/injection, schedule: Q01DX009 (ip), vehicle: saline with Tween-80
[2] = dose: 100.0 mg/kg/injection, schedule: Q04DX003 (ip), vehicle: saline with Tween-80
[3] = dose: 200.0 mg/kg/injection, schedule: Q01DX009 (ip), vehicle: saline with Tween-80
[4] = dose: 200.0 mg/kg/injection, schedule: Q04DX003 (ip), vehicle: saline with Tween-80
[5] = dose: 400.0 mg/kg/injection, schedule: Q04DX003 (ip), vehicle: saline with Tween-80
[6] = dose: 100.0 mg/kg/injection, schedule: Q01DX001 (ip), vehicle: saline
[7] = dose: 200.0 mg/kg/injection, schedule: Q01DX001 (ip), vehicle: saline
[8] = dose: 400.0 mg/kg/injection, schedule: Q01DX001 (ip), vehicle: saline
[9] = dose: 100.0 mg/kg/injection, schedule: Q01DX009 (ip), vehicle: Klucel (hydroxypropylcellulose) (HPC)
[10] = dose: 100.0 mg/kg/injection, schedule: Q04DX003 (ip), vehicle: Klucel (hydroxypropylcellulose) (HPC)
[11] = dose: 200.0 mg/kg/injection, schedule: Q01DX009 (ip), vehicle: Klucel (hydroxypropylcellulose) (HPC)
[12] = dose: 200.0 mg/kg/injection, schedule: Q04DX003 (ip), vehicle: Klucel (hydroxypropylcellulose) (HPC)
[13] = dose: 400.0 mg/kg/injection, schedule: Q01DX009 (ip), vehicle: Klucel (hydroxypropylcellulose) (HPC)
[14] = dose: 400.0 mg/kg/injection, schedule: Q04DX003 (ip), vehicle: Klucel (hydroxypropylcellulose) (HPC)
[15] = dose: 400.0 mg/kg/injection, schedule: Q01DX009 (ip), vehicle: saline with Tween-80
[16] = dose: 50.0 mg/kg/injection, schedule: Q01DX001 (ip), vehicle: Klucel (hydroxypropylcellulose) (HPC)
[17] = dose: 100.0 mg/kg/injection, schedule: Q01DX001 (ip), vehicle: Klucel (hydroxypropylcellulose) (HPC)
[18] = dose: 50.0 mg/kg/injection, schedule: Q01DX001 (ip), vehicle: saline
[19] = dose: 200.0 mg/kg/injection, schedule: Q01DX001 (ip), vehicle: Klucel (hydroxypropylcellulose) (HPC)
[20] = dose: 100.0 mg/kg/injection, schedule: Q04DX002 (ip), vehicle: Klucel (hydroxypropylcellulose) (HPC)
[21] = dose: 200.0 mg/kg/injection, schedule: Q04DX002 (ip), vehicle: Klucel (hydroxypropylcellulose) (HPC)
[22] = dose: 400.0 mg/kg/injection, schedule: Q04DX002 (ip), vehicle: Klucel (hydroxypropylcellulose) (HPC)

Measured: T/C

CCC(=O)c1ccc(NC(=O)Nc2ccc(C(=O)CC)cc2)cc1
inactive: dose: 20.0 mg/kg/injection, schedule: Q01DX009 (ip), vehicle: saline 96 % of control | dose: 40.0 mg/kg/injection, schedule: Q01DX009 (ip), vehicle: saline 93 % of control | dose: 80.0 mg/kg/injection, schedule: Q01DX009 (ip), vehicle: saline 102 % of control | dose: 160.0 mg/kg/injection, schedule: Q01DX009 (ip), vehicle: saline 95 % of control | dose: 320.0 mg/kg/injection, schedule: Q01DX009 (ip), vehicle: saline 92 % of control

Cn1nnn2c(-c3ccccc3)nnc12
inactive: [1] 97 % of control | [2] 105 % of control | [3] 105 % of control | [4] 97 % of control | [5] 100 % of control

CC1(N2CCCC2)CCCCC1
inactive: dose: 50.0 mg/kg/injection, schedule: Q01DX001 (ip), vehicle: carboxymethylcellulose (CMC) 94 % of control | dose: 100.0 mg/kg/injection, schedule: Q01DX001 (ip), vehicle: carboxymethylcellulose (CMC) 99 % of control

O=C(Nc1cccc(C(F)(F)F)c1)Nc1cccc2c1C(=O)c1ccccc1C2=O
inactive: [1] 88 % of control | [3] 87 % of control

OCCN(CCO)c1nnc(-c2ccccc2)o1
inactive: [6] 102 % of control | [7] 94 % of control and 90 % of control | [8] 101 % of control and 91 % of control

O=c1cc(-c2ccccc2)cc(-c2ccccc2)o1
inactive: [9] 102 % of control | [10] 96 % of control | [11] 96 % of control | [12] 100 % of control | [13] 96 % of control | [14] 94 % of control

CC(=O)Nc1c(Cl)c(Cl)c2[nH]c(=O)c3cc(Cl)ccc3c2c1Cl
inactive: dose: 75.0 mg/kg/injection, schedule: Q01DX001 (ip), vehicle: carboxymethylcellulose (CMC) 87 % of control | dose: 150.0 mg/kg/injection, schedule: Q01DX001 (ip), vehicle: carboxymethylcellulose (CMC) 95 % of control | dose: 300.0 mg/kg/injection, schedule: Q01DX001 (ip), vehicle: carboxymethylcellulose (CMC) 88 % of control

CCOC(=O)c1ccc(NC(=O)Nc2cc(C)ccn2)cc1
inactive: [9] 96 % of control | [11] 107 % of control | [13] 105 % of control

CC1(C)COC(c2ccccc2)=N1
inactive: [1] 105 % of control | dose: 100.0 mg/kg/injection, schedule: Q04DX003 (ip), vehicle: saline sonified 93 % of control | [3] 103 % of control | dose: 200.0 mg/kg/injection, schedule: Q04DX003 (ip), vehicle: saline sonified 87 % of control | [15] 102 % of control | dose: 400.0 mg/kg/injection, schedule: Q04DX003 (ip), vehicle: saline sonified 90 % of control

CN(C)c1ccc(/C=N\NC(=O)N/N=C/c2ccc(N(C)C)cc2)cc1
inactive: dose: 25.0 mg/kg/injection, schedule: Q01DX001 (ip), vehicle: Klucel (hydroxypropylcellulose) (HPC) 92 % of control | [16] 97 % of control | [17] 97 % of control and 90 % of control

CCCCCCCCCCCCCCOS(=O)(=O)c1ccc(C)cc1
inactive: [18] 102 % of control | [6] 102 % of control | [7] 96 % of control | [8] 100 % of control

O=C(Cc1ccccc1)c1ccccc1
inactive: [1] 93 % of control | [3] 93 % of control | [15] 100 % of control

CCc1ccccc1NC(=O)Nc1ccc(CCO)cc1
inactive: [9] 98 % of control | [11] 105 % of control | [13] 96 % of control

C=C(Cl)CC1(C(=O)OCC)CCN(S(=O)(=O)c2ccc(C)cc2)c2ccccc2C1=O (centres undefined)
inactive: [10] 94 % of control | [12] 98 % of control | [14] 88 % of control

CCCCCCCCCCCCCCCOc1cccc(OCCCCCCCCCCCCCCC)c1
inactive: [16] 92 % of control | [17] 92 % of control | [19] 92 % of control

CCOC(=O)C(NC(=O)C(Cc1ccc(N(CCCl)CCCl)cc1)NC(C)=O)C(C)C (centres undefined)
inactive: dose: 7.5 mg/kg/injection, schedule: Q01DX009 (ip), vehicle: alcohol 96 % of control | dose: 15.0 mg/kg/injection, schedule: Q01DX009 (ip), vehicle: alcohol 120 % of control | dose: 24.0 mg/kg/injection, schedule: Q01DX009 (ip), vehicle: carboxymethylcellulose (CMC) 96 % of control | dose: 25.0 mg/kg/injection, schedule: Q01DX009 (ip), vehicle: saline 98 % of control | dose: 30.0 mg/kg/injection, schedule: Q04DX003 (ip), vehicle: alcohol 110 % of control | dose: 36.0 mg/kg/injection, schedule: Q01DX009 (ip), vehicle: carboxymethylcellulose (CMC) 98 % of control | [18] 111 % of control | dose: 50.0 mg/kg/injection, schedule: Q01DX009 (ip), vehicle: carboxymethylcellulose (CMC) 104 % of control | dose: 50.0 mg/kg/injection, schedule: Q01DX009 (ip), vehicle: saline 101 % of control | dose: 50.0 mg/kg/injection, schedule: Q04DX003 (ip), vehicle: alcohol 110 % of control | dose: 75.0 mg/kg/injection, schedule: Q01DX009 (ip), vehicle: carboxymethylcellulose (CMC) 102 % of control | dose: 75.0 mg/kg/injection, schedule: Q04DX003 (ip), vehicle: alcohol 121 % of control | [6] 105 % of control | dose: 100.0 mg/kg/injection, schedule: Q01DX009 (ip), vehicle: saline 109 % of control | dose: 112.0 mg/kg/injection, schedule: Q01DX009 (ip), vehicle: alcohol 103 % of control and 108 % of control | dose: 112.0 mg/kg/injection, schedule: Q01DX009 (ip), vehicle: carboxymethylcellulose (CMC) 96 % of control | dose: 112.0 mg/kg/injection, schedule: Q04DX003 (ip), vehicle: alcohol 118 % of control | dose: 178.0 mg/kg/injection, schedule: Q01DX009 (ip), vehicle: carboxymethylcellulose (CMC) 107 % of control | dose: 178.0 mg/kg/injection, schedule: Q01DX015 (ip), vehicle: saline 103 % of control | [7] 105 % of control | dose: 267.0 mg/kg/injection, schedule: Q01DX009 (ip), vehicle: carboxymethylcellulose (CMC) 96 % of control | dose: 267.0 mg/kg/injection, schedule: Q01DX015 (ip), vehicle: saline 108 % of control | [8] 115 % of control | dose: 400.0 mg/kg/injection, schedule: Q01DX009 (ip), vehicle: carboxymethylcellulose (CMC) 98 % of control | dose: 400.0 mg/kg/injection, schedule: Q01DX015 (ip), vehicle: saline 106 % of control | dose: 600.0 mg/kg/injection, schedule: Q01DX009 (ip), vehicle: carboxymethylcellulose (CMC) 96 % of control | dose: 600.0 mg/kg/injection, schedule: Q01DX015 (ip), vehicle: saline 94 % of control

O=C(Nc1cccc(Cl)c1)Nc1cc(Cl)ccc1Cl
inactive: [1] 92 % of control | [2] 96 % of control | [3] 90 % of control | [4] 91 % of control | [15] 94 % of control | [5] 97 % of control

Cc1cc2no[n+]([O-])c2cc1C
inactive: dose: 50.0 mg/kg/injection, schedule: Q01DX009 (ip), vehicle: Klucel (hydroxypropylcellulose) (HPC) 108 % of control | [17] 100 % of control | [9] 106 % of control | [19] 96 % of control | [11] 114 % of control

COc1cc(N(CCCl)CCCl)ccc1C=Nc1cc(Cl)ccc1-n1ccnc1
inactive: [20] 95 % of control | [21] 95 % of control | [22] 87 % of control

O=C1OC(=O)C2C3CCCCC3=C3CCCCC3C12 (centres undefined)
inactive: [20] 96 % of control | [10] 101 % of control | [21] 101 % of control | [12] 105 % of control | [22] 93 % of control | [14] 103 % of control

CC1=C(N)C(=O)C(C)=C(N)C1=O
inactive: dose: 100.0 mg/kg/injection, schedule: Q01DX001 (ip), vehicle: other 98 % of control | dose: 200.0 mg/kg/injection, schedule: Q01DX001 (ip), vehicle: other 88 % of control | dose: 400.0 mg/kg/injection, schedule: Q01DX001 (ip), vehicle: other 97 % of control
